The values below come from patent publication EP0341735A1, “N-acetyl-3-fluoroneuraminic acid as antiviral drug” (priority 1988, dated 1989).

A word on the inhibition: it is the change of the read-out against control, counted positive when it falls.

The target of data set [1] is sialidase produced by Vibrio colerae (Vibrio cholerae serotype O1, UniProt P0C6E9). Kind of data set: Sialidase inhibition, 4-MU-NeuAc fluorescence assay. Particulars: same procedure as Example 1. It is filed as biochemical. As for the experimental part: (§1) 100 µ ℓ of a 0.5 mM solution of 4-methylumbelliferyl-N-acetylneuraminic acid (4-MU-NeuAc) (a product of Nakarai Kagaku Co., Ltd) of the following formula: [drawing 15]
sialidase produced by Vibrio colerae, sequence (P0C6E9 25-781): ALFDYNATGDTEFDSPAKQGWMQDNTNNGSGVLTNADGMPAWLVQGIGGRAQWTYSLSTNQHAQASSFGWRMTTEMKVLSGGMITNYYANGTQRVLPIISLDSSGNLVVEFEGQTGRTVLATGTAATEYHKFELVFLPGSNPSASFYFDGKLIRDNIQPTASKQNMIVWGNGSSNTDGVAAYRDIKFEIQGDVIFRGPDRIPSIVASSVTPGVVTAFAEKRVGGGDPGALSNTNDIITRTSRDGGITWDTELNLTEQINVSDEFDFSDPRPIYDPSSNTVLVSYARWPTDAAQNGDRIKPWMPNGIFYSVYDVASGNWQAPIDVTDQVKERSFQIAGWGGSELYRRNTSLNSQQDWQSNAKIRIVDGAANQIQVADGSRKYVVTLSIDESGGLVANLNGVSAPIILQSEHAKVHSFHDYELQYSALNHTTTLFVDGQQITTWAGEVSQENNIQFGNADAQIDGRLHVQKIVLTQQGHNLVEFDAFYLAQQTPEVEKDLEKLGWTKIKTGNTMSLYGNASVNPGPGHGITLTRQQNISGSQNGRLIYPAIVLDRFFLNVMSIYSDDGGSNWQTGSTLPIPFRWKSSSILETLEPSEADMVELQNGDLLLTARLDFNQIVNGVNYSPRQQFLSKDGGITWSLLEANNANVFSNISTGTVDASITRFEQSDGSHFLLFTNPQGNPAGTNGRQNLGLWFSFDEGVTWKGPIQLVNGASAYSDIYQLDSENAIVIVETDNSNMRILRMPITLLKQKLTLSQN
(§2) 100 µ ℓ of a 200 mM sodium acetate buffer (pH 4.2) and 100 µ ℓ of N-acetyl-3-fluoroneuraminic acid (compound 1) 4 to 400 µM were added to an enzyme solution ([…]) (10 mU/ml) of sialidase (a product of Nakarai Kagaku Co., Ltd.) product from Arthrobacter ureafaciens in a test tube, and the reaction was conducted in a water bath at 37 °C for 15 min. Then, 3.6 ml of a 200 mM glycine/NaOH buffer (pH 10.4) was added to the reaction mixture in the test tube to terminate the reaction. the concentration of 4-methylumbelliferone formed in the reaction solution was determined from its fluorescence intensity at an excitation wave length of 360 nm and an emission wave length of 440 nm with a fluorescence spectrophotometer (a product of Hitachi, Ltd.). The amount of free sialic acid was determined from this value.
(§3) The sialidase inhibition rate was determined according to the following formula: [formula]
(§4) The same procedure as that of Example 1 was repeated except that sialidases produced by Vibrio colerae and Streptococcus sp. were used, and then the inhibition rate of Compound 1 was determined.

Data set [2] concerns sialidase produced by Streptococcus sp. The description is as above. It is filed as biochemical. As to conditions: same procedure as Example 1. Here is the method: as §1, §2, §3, §4
The test system of data set [3] is sialidase produced by Arthrobacter ureaffacients. Described as above. Particulars: for Inhibition rate / NeuAc released: substrate 4-MU-NeuAc, pH 4.2, 37 °C, 15 min. It is filed as biochemical, Arthrobacter ureafaciens. Here is the method: as §1, §2, §3
The test system of data set [4] is Female ICR mice. Kind of data set: Acute toxicity test by intravenous injection. As to conditions: for Number of deaths: Intravenous injection, 10 mice per level, observation period 14 days. It is filed as in vivo. As for the experimental part: The acute toxicity test of Compound 1 was conducted by an intravenous injection in female mice.
Animals used: Female ICR mice (6 week old) Medicine concentration: 13 to 15 W/V % in distilled water Number of mice for each level: 10 Observation period: 14 days.

Each structure is given as a SMILES string.

As for `CC(=O)N[C@H]1[C@H]([C@H](O)[C@H](O)CO)OC(O)(C(=O)O)C(F)[C@@H]1O` (stereo partly drawn) [Compound 1, N-acetyl-3-fluoroneuraminic acid], the NeuAc released in data set [1] (Compound 1 at 0.001 mM) was 5.9 n mol; in data set [1] (Compound 1 at 0.01 mM), 5.3 n mol; in data set [1] (Compound 1 at 0.1 mM), 2.8 n mol; in data set [2] (Compound 1 at 0.001 mM), 10.5 n mol; in data set [2] (Compound 1 at 0.01 mM), 8.5 n mol; in data set [2] (Compound 1 at 0.1 mM), 2.8 n mol. In addition, the NeuAc released is reported as 23.0 n mol in data set [3] (Compound 1 at 0.001 mM), 14.0 n mol in data set [3] (Compound 1 at 0.01 mM) and 4.9 n mol in data set [3] (Compound 1 at 0.1 mM). Besides, in data set [1] (Compound 1 at 0.001 mM, read-out: Inhibition rate), the inhibition at 1 µM was -0.2%. In addition, the inhibition at 10 µM in data set [1] (Compound 1 at 0.01 mM, read-out: Inhibition rate) amounted to 8.4%. The inhibition at 100 µM in data set [1] (Compound 1 at 0.1 mM, read-out: Inhibition rate) was determined as 52.7%. The Inhibition rate in data set [2] (Compound 1 at 0.001 mM) is 7.4%; in data set [2] (Compound 1 at 0.01 mM) it was 24.6%; in data set [2] (Compound 1 at 0.1 mM), 75.4%; in data set [3] (Compound 1 at 0.001 mM), 14.3%; in data set [3] (Compound 1 at 0.01 mM) it was 48.9%; in data set [3] (Compound 1 at 0.1 mM), 82.0%. In addition, in data set [3] (Fig. 1, two different substrate concentrations), the “inhibition pattern (Dixon plot)” value is listed as “competitive with the substrate”. Besides, the “activity of sialidase (inhibition, in words)” value in data set [3] (conclusion from Table 1) was “remarkably inhibits”. For the same compound, the Number of deaths in data set [4] (dose 200 mg), in data set [4] (dose 400 mg) and in data set [4] (dose 600 mg) was 0 throughout. In addition, the “toxicity (in words)” value in data set [4] (conclusion from Table 4) is on record as “quite low”.
